Laboratory results taken from patent publication US20080103205A1, “Pesticidal compositions and methods of use” (priority 2006, published 2008).
Like-named read-outs stand apart in the source and are kept apart here.

Experiments:
Assay type in all cases: in vivo
[1] = system: Caenorhabditis elegans; assay: Toxicity test, adult Caenorhabditis elegans, 96 well micro plate; details: Caenorhabditis elegans
Protocol: Methodology: Toxicity tests were conducted using J2 juveniles of Meloidogyne incognita adult Caenorhabditis elegans collected from nematode-infested tomato plant roots and culture Petri plates, respectively. Test concentrations of 50, 100, 200, 300, or 400 ppm were prepared in 0.2% dimethylsulfoxide (DMSO) in tap water. Aliquots (300 microliters (ul)) were applied to a 96 well micro plate and a 20 ul aqueous solution containing nematodes was added. The number of nematodes in 20 ul ranged from 17 to 30. Micro plates were sealed with Parafilm™ and incubated at room temperature. Similar tests conducted with 0.2% DMSO in tap water served as controls. Nematode mortality was checked at 24, 48, 72, 120, and 168 hr after incubation. Nematodes that were motionless for 30 sec when observed under a stereomicroscope were considered paralyzed and included in mortality counts. Each concentration was replicated five times and mean percent mortality was calculated after correcting for control mortality using Abbott's formula.
Data Analysis: Mortality data were analyzed using PROC PROBIT (SAS) program and LC50 values were estimated.

[2] = system: European corn borer (Ostrinia nubilalis); assay: Diet surface test on European corn borer larvae (2nd instar)
Protocol: Concentrations of 6.25, 12.5, 25, or 50 ppm AT blocker were prepared in 95% ethyl alcohol (EtOH). 95% EtOH alone served as control. European corn borer (ECB) diet prepared from the powdered diet supplied by French Agricultural Research, Inc. Diet (1-2 ml) was poured into small cups and allowed to cool to room temperature. Test solution (100 ul) was placed onto the diet surface and allowed to evaporate the solvent. Each concentration of chemical had 2 sets of 10 cups each. One late 2nd instar larva was placed in each cup and covered with lid having perforations for aeration. Cups were placed in an incubator for 7 days at 25±1° C. and 70±5% RH. After seven days, the weight of each larva was taken and any mortality was recorded. Then, the surviving larvae were transferred to fresh diet cups holding sufficient diet (5-6 ml) without chemicals and incubated at 25±1° C. and 70±5% RH until pupation. Weights of larvae were taken 14 days after transferring to fresh diet (21 days after start of treatment). Finally, the number of days until pupation was recorded.
Anion transporters caused larval death and a reduction in weight gain within 7 days exposure. The effect persisted for 2 weeks time on untreated diet, but total time to pupation was relatively unaffected.

[3] = system: Drosophila melanogaster; assay: Toxicity against adult Drosophila melanogaster, sugar solution feeding
Protocol: Toxicity tests were conducted using mixed sex adults of D. melanogaster maintained on artificial diet in the department of entomology, Virginia Tech. Test concentrations of 6.25, 12.5, 25, 50 or 100 ppm were prepared in 0.2% dimethyl sulfoxide (DMSO) for DIDS, 9-AC, NPPB, and IAA-94. The above final concentrations were obtained after mixing them in 10 ml of 10% sugar solution. Similar preparations with 0.2% DMSO alone served as controls. One end of a cotton wick was dipped in 0.5 ml of sugar solution and placed on the glass vial containing 10 adult flies of mixed sex. Each concentration of test chemical had 5 replications. Mortality counts of flies were taken 24, 48, and 72 hrs after treatment. Insects without movement upon probing were considered dead. LC50 values and confidence intervals for each chemical were estimated using POLO PLUS software program. The data provided in Tables 3-A and 3-B below confirm that AT blockers are toxic to insects in acute exposures.

[4] = 24 h, read-out: Corrected Mortality (%)
[5] = 48 h, read-out: Corrected Mortality (%)
[6] = 72 h, read-out: Corrected Mortality (%)
[7] = 120 h, read-out: Corrected Mortality (%)
[8] = 168 h, read-out: Corrected Mortality (%)
[9] = 6.25 ppm, 7 days after feeding, 10 larvae treated
[10] = 6.25 ppm, 21 days after feeding
[11] = 6.25 ppm, 21 days after feeding, 10 larvae treated
[12] = 12.5 ppm, 7 days after feeding, 10 larvae treated
[13] = 12.5 ppm, 21 days after feeding
[14] = 12.5 ppm, 21 days after feeding, 10 larvae treated
[15] = 25 ppm, 7 days after feeding, 10 larvae treated
[16] = 25 ppm, 21 days after feeding, 10 larvae treated
[17] = 50 ppm, 7 days after feeding, 10 larvae treated

For `CC1(C2CCCC2)Cc2cc(OCC(=O)O)c(Cl)c(Cl)c2C1=O` (single isomer, unassigned; (+)) [IAA-94, (+)(2-cyclopentyl-6,7-dichloro-2-methyl-1-oxo-5-indanyloxy) acetic acid], the mortality at 50 ppm ([1]; 24 h) was 8%, the mortality at 100 ppm ([1]; 24 h) was 14% and the mortality at 200 ppm ([1]; 24 h) was 17%. For the same compound, the mortality at 300 ppm ([1]; 24 h) was 21%, the mortality at 400 ppm ([1]; 24 h) was 24% and the mortality at 50 ppm [1, 4] was 5%. For the same compound, the mortality at 100 ppm [1, 4] was 11%, the mortality at 200 ppm [1, 4] was 14% and the mortality at 300 ppm [1, 4] was 19%. It also gave a mortality at 400 ppm [1, 4] of 22%, a mortality at 50 ppm ([1]; 48 h) of 17% and a mortality at 100 ppm ([1]; 48 h) of 29%. It also gave a mortality at 200 ppm ([1]; 48 h) of 38%, a mortality at 300 ppm ([1]; 48 h) of 43% and a mortality at 400 ppm ([1]; 48 h) of 48%. For the same compound, the mortality at 50 ppm [1, 5] was 13%, the mortality at 100 ppm [1, 5] was 25% and the mortality at 200 ppm [1, 5] was 35%. For the same compound, the mortality at 300 ppm [1, 5] was 40%, the mortality at 400 ppm [1, 5] was 45% and the mortality at 50 ppm ([1]; 72 h) was 35%. For the same compound, the mortality at 100 ppm ([1]; 72 h) was 44%, the mortality at 200 ppm ([1]; 72 h) was 64% and the mortality at 300 ppm ([1]; 72 h) was 71%. For the same compound, the mortality at 400 ppm ([1]; 72 h) was 77%, the mortality at 50 ppm [1, 6] was 31% and the mortality at 100 ppm [1, 6] was 40%. The mortality at 200 ppm [1, 6] was 62%, the mortality at 300 ppm [1, 6] was 69% and the mortality at 400 ppm [1, 6] was 76%. The mortality at 50 ppm ([1]; 120 h) was 58%, the mortality at 100 ppm ([1]; 120 h) was 70% and the mortality at 200 ppm ([1]; 120 h) was 90%. It also gave a mortality at 300 ppm ([1]; 120 h) of 94%, a mortality at 400 ppm ([1]; 120 h) of 98% and a mortality at 50 ppm [1, 7] of 53%. For the same compound, the mortality at 100 ppm [1, 7] was 67%, the mortality at 200 ppm [1, 7] was 89% and the mortality at 300 ppm [1, 7] was 93%. It also gave a mortality at 400 ppm [1, 7] of 98%, a mortality at 50 ppm ([1]; 168 h) of 81% and a mortality at 100 ppm ([1]; 168 h) of 94%. For the same compound, the mortality at 200 ppm ([1]; 168 h) was 99%, the mortality at 300 ppm ([1]; 168 h) was 100% and the mortality at 400 ppm ([1]; 168 h) was 100%. It also gave a mortality at 50 ppm [1, 8] of 78%, a mortality at 100 ppm [1, 8] of 93% and a mortality at 200 ppm [1, 8] of 99%. The mortality at 300 ppm [1, 8] was 100%, the mortality at 400 ppm [1, 8] was 100% and the “Mean wt of survived larvae” value ([2]; 6.25 ppm, 7 days after feeding) was 45.52 mg. The “Mean wt of survived larvae, mg” value ([2]; 6.25 ppm, 7 days after feeding) was 44.64 (10) mg, the No. dead ([2]; 6.25 ppm, 7 days after feeding, 10 larvae) was 0 and the “# surviving” value [2, 9] was 10. For the same compound, the No. dead [2, 9] was 0, the “Mean wt of survived larvae” value [2, 10] was 138.56 mg and the “Mean wt of survived larvae, mg” value [2, 10] was 150.90 (10) mg. The No. dead ([2]; 6.25 ppm, 21 days after feeding, 10 larvae) was 0, the “# surviving” value [2, 11] was 10 and the No. dead [2, 11] was 0. The “Mean wt of survived larvae” value ([2]; 12.5 ppm, 7 days after feeding) was 33.62 mg, the “Mean wt of survived larvae, mg” value ([2]; 12.5 ppm, 7 days after feeding) was 34.40 (10) mg and the No. dead ([2]; 12.5 ppm, 7 days after feeding, 10 larvae) was 0. The “# surviving” value [2, 12] was 10, the No. dead [2, 12] was 0 and the “Mean wt of survived larvae” value [2, 13] was 108.84 mg. For the same compound, the “Mean wt of survived larvae, mg” value [2, 13] was 115.14 (10) mg, the No. dead ([2]; 12.5 ppm, 21 days after feeding, 10 larvae) was 0 and the “# surviving” value [2, 14] was 10. For the same compound, the No. dead [2, 14] was 0, the “Mean wt of survived larvae” value ([2]; 25 ppm, 7 days after feeding) was 25.97 mg and the “Mean wt of survived larvae, mg” value ([2]; 25 ppm, 7 days after feeding) was 23.96 (10) mg. For the same compound, the No. dead ([2]; 25 ppm, 7 days after feeding, 10 larvae) was 0, the “# surviving” value [2, 15] was 8 and the No. dead [2, 15] was 2. The “Mean wt of survived larvae” value ([2]; 25 ppm, 21 days after feeding) was 4.85 mg, the “Mean wt of survived larvae, mg” value ([2]; 25 ppm, 21 days after feeding) was 65.60 (8) mg and the No. dead ([2]; 25 ppm, 21 days after feeding, 10 larvae) was 2. For the same compound, the “# surviving” value [2, 16] was 8, the No. dead [2, 16] was 2 and the “Mean wt of survived larvae” value ([2]; 50 ppm, 7 days after feeding) was 11.90 mg. For the same compound, the “Mean wt of survived larvae, mg” value ([2]; 50 ppm, 7 days after feeding) was 12.93 (6) mg, the No. dead ([2]; 50 ppm, 7 days after feeding, 10 larvae) was 4 and the “# surviving” value [2, 17] was 2. The No. dead [2, 17] was 8, the “Mean wt of survived larvae” value ([2]; 50 ppm, 21 days after feeding) was 0 mg and the “Mean wt of survived larvae, mg” value ([2]; 50 ppm, 21 days after feeding) was 24.0 (2) mg. The No. dead ([2]; 50 ppm, 21 days after feeding, 10 larvae) was 8, the No. dead ([2]; 50 ppm, 21 days after feeding, 10 larvae treated) was 10 and the mortality at 6.25 ppm ([2]; Ostrinia nubilalis, 168 h, 6.25 ppm, 7 days after feeding) was 0%. For the same compound, the mortality at 12.5 ppm ([2]; Ostrinia nubilalis, 168 h, 12.5 ppm, 7 days after feeding) was 0%, the mortality at 6.25 ppm ([2]; Ostrinia nubilalis, 504 h, 6.25 ppm, 21 days after feeding) was 0% and the mortality at 12.5 ppm ([2]; Ostrinia nubilalis, 504 h, 12.5 ppm, 21 days after feeding) was 0%. The mortality at 25 ppm ([2]; Ostrinia nubilalis, 504 h, 25 ppm, 21 days after feeding) was 20%, the mortality at 50 ppm ([2]; Ostrinia nubilalis, 504 h, 50 ppm, 21 days after feeding) was 80% and the “LC50 (ppm)” value ([3]; 48 hr) was 170.05 ppm. The “LC50 (ppm)” value ([3]; 72 hr) was 115.67 ppm.
